Measurements as given in patent US11028072B2, “2,4-diamino-6-ethylpyrimidine derivatives with antimalarial activities against Plasmodium falciparum” (National Science and Technology Development Agency, priority 2015, dated 2021).
Where a name gives a salt, the structure may show the parent alone.

Tests used:
[1] = test system: P. falciparum TM4/8.2 (wild type); assay: microbe, parasite or virus in culture; format: cell-based, Plasmodium falciparum; details: Plasmodium falciparum; in vitro, wild-type strain TM4/8.2; read-out: IC50 P. falciparum TM4/8.2 (WT)
Excerpt: (§1) In Vitro Antimalarial Activites Against P. falciparum and Cytotoxicity Towards Mammalian Cells (Vero Cells)

[2] = test system: P. falciparum V1/S (N51I + C59R + S108 + I164L); assay: microbe, parasite or virus in culture; format: cell-based, Plasmodium falciparum; details: Plasmodium falciparum; in vitro, quadruple mutant strain V1/S; read-out: IC50 P. falciparum V1/S
Excerpt: as §1

in vitro = details: African green monkey
Excerpt: as §1

SMILES: CCc1nc(N)nc(N)c1OCc1cc(-c2ccc(C(=O)O)cc2)no1 (as salt: hydrochloride) [Compound 44]
- melting point: 242 to 244 °C

SMILES: CCc1nc(N)nc(N)c1OCc1cc(-c2ccc(C(F)(F)F)cc2)no1 (as salt: hydrochloride) [Compound 41]
- melting point: 173 to 174.5 °C

SMILES: CCc1nc(N)nc(N)c1OCc1coc(-c2ccc(Cl)cc2)n1 (as salt: hydrochloride) [Compound 55]
- melting point: 239 to 240 °C

SMILES: CCc1nc(N)nc(N)c1OCc1cn(-c2ccc(C(=O)O)cc2)nn1 (as salt: hydrochloride) [Compound 19]
- melting point: 270.8 to 272 °C

SMILES: CCc1nc(N)nc(N)c1OCc1csc(-c2ccc(Cl)cc2)n1 (as salt: hydrochloride) [Compound 70]
- melting point: 230 to 232 °C

SMILES: CCc1nc(N)nc(N)c1OCc1csc(-c2cccc(C(=O)OC)c2)n1 (as salt: hydrochloride) [Compound 65]
- melting point: 224.5 to 226.5 °C

SMILES: CCc1nc(N)nc(N)c1-c1cn(CCCc2ccccc2)nn1 (as salt: hydrochloride) [Compound 8]
- melting point: 233 to 235 °C

SMILES: CCc1nc(N)nc(N)c1OCc1coc(-c2ccc(OCC(=O)OCc3ccccc3)cc2)n1 (as salt: hydrochloride) (hydrate or solvate) [Compound 56]
- melting point: 191.5 to 192.5 °C

SMILES: CCc1nc(N)nc(N)c1-c1cn(CCOc2ccc(C(=O)OC)cc2)nn1 (as salt: hydrochloride) [Compound 10]
- melting point: 225 to 226 °C

SMILES: CCc1nc(N)nc(N)c1-c1cn(-c2ccccc2)nn1 (as salt: hydrochloride) [Compound 1]
- melting point: 273.2 to 274.5 °C

SMILES: CCc1nc(N)nc(N)c1OCCCc1cn(-c2ccc(C(=O)OC)cc2)nn1 (as salt: hydrochloride) [Compound 24]
- melting point: 208 to 209.5 °C

SMILES: CCc1nc(N)nc(N)c1OCc1coc(-c2ccccc2)n1 (as salt: hydrochloride) [Compound 50]
- melting point: 231 to 232 °C

SMILES: CCc1nc(N)nc(N)c1-c1cn(CCCOc2ccc(Cl)cc2)nn1 (as salt: hydrochloride) [Compound 11]
- melting point: 222.5 to 223.5 °C

SMILES: CCc1nc(N)nc(N)c1OCCc1csc(-c2ccccc2)n1 (as salt: hydrochloride) [Compound 76]
- melting point: 215 to 217 °C

SMILES: CCc1nc(N)nc(N)c1OCc1coc(-c2ccc(OCC(=O)O)cc2)n1 (as salt: hydrochloride) (hydrate or solvate) [Compound 57]
- melting point: 195.5 to 197.5 °C

SMILES: CCc1nc(N)nc(N)c1OCc1csc(-c2ccc(Br)cc2)n1 (as salt: hydrochloride) [Compound 71]
- melting point: 236 to 238 °C

SMILES: CCc1nc(N)nc(N)c1OCCCc1cc(-c2ccc(Cl)cc2)no1 (as salt: hydrochloride) [Compound 45]
- melting point: 231.5 to 232.5 °C

SMILES: CCc1nc(N)nc(N)c1OCc1csc(-c2ccc(C(=O)OC)cc2)n1 (as salt: hydrochloride) [Compound 74]
- melting point: 217 to 219 °C

SMILES: CCc1nc(N)nc(N)c1OCc1cn(-c2cccc([N+](=O)[O-])c2)nn1 (as salt: hydrochloride) [Compound 14]
- melting point: 236 to 237 °C

SMILES: CCc1nc(N)nc(N)c1OCc1csc(-c2ccc(C)cc2)n1 (as salt: hydrochloride) [Compound 67]
- melting point: 235 to 236 °C

SMILES: CCc1nc(N)nc(N)c1OCc1cc(-c2cccc([N+](=O)[O-])c2)no1 (as salt: hydrochloride) [Compound 39]
- melting point: 179.5 to 181.5 °C

SMILES: CCc1nc(N)nc(N)c1OCc1coc(-c2cccc([N+](=O)[O-])c2)n1 (as salt: hydrochloride) [Compound 52]
- melting point: 221.5 to 222.5 °C

SMILES: CCc1nc(N)nc(N)c1OCCCc1cn(-c2ccc(C(=O)O)cc2)nn1 (as salt: hydrochloride) [Compound 25]
- melting point: 239.5 to 241.5 °C

SMILES: CCc1nc(N)nc(N)c1OCCc1coc(-c2ccc(C(=O)O)cc2)n1 (as salt: hydrochloride) [Compound 59]
- melting point: 330 to 332 °C

SMILES: CCc1nc(N)nc(N)c1OCc1csc(-c2cccc([N+](=O)[O-])c2)n1 (as salt: hydrochloride) [Compound 62]
- melting point: 235 to 236.5 °C

SMILES: CCc1nc(N)nc(N)c1OCCCc1cc(-c2cccc(C(F)(F)F)c2)no1 (as salt: hydrochloride) [Compound 46]
- melting point: 216.5 to 218 °C

SMILES: CCc1nc(N)nc(N)c1OCc1cc(-c2ccc([N+](=O)[O-])cc2)no1 (as salt: hydrochloride) [Compound 43]
- melting point: 216 to 218 °C

SMILES: CCc1nc(N)nc(N)c1OCc1csc(-c2cccc(OCC(=O)O)c2)n1 (as salt: hydrochloride) (hydrate or solvate) [Compound 64]
- melting point: 191 to 193 °C

SMILES: CCc1nc(N)nc(N)c1OCc1cn(Cc2cccc(C(=O)O)c2)nn1 (as salt: hydrochloride) [Compound 26]
- melting point: 170 to 171 °C

SMILES: CCc1nc(N)nc(N)c1-c1cn(Cc2ccccc2)nn1 (as salt: hydrochloride) [Compound 3]
- melting point: 255.5 to 256.5 °C

SMILES: CCc1nc(N)nc(N)c1-c1cn(CCOc2ccc(Cl)cc2)nn1 (as salt: hydrochloride) [Compound 9]
- melting point: 173.5 to 175 °C

SMILES: CCc1nc(N)nc(N)c1-c1cn(Cc2ccc(C(=O)O)cc2)nn1 (as salt: hydrochloride) [Compound 5]
- melting point: 270 to 272 °C

SMILES: CCc1nc(N)nc(N)c1OCc1cn(-c2cccc(C(=O)OC)c2)nn1 (as salt: hydrochloride) [Compound 15]
- melting point: 211 to 212 °C

SMILES: CCc1nc(N)nc(N)c1OCc1csc(-c2ccc(C(=O)O)cc2)n1 (as salt: hydrochloride) [Compound 75]
- melting point: 213 to 214 °C

SMILES: CCc1nc(N)nc(N)c1-c1cn(CCCOc2ccc(C(=O)OC)cc2)nn1 (as salt: hydrochloride) [Compound 12]
- melting point: 211 to 212 °C

SMILES: CCc1nc(N)nc(N)c1OCCc1cn(-c2ccc(C(=O)OC)cc2)nn1 (as salt: hydrochloride) [Compound 21]
- melting point: 190 to 192 °C

SMILES: CCc1nc(N)nc(N)c1OCc1cc(-c2ccc(F)cc2)no1 (as salt: hydrochloride) [Compound 34]
- melting point: 231 to 232 °C

SMILES: CCc1nc(N)nc(N)c1OCCCc1cc(-c2cccc(C(=O)OC)c2)no1 (as salt: hydrochloride) [Compound 48]
- melting point: 188 to 189.5 °C

SMILES: CCc1nc(N)nc(N)c1OCCc1coc(-c2ccccc2)n1 (as salt: hydrochloride) [Compound 58]
- melting point: 254.5 to 255.5 °C

SMILES: CCc1nc(N)nc(N)c1OCc1csc(-c2ccccc2)n1 (as salt: hydrochloride) [Compound 60]
- melting point: 220 to 222 °C

SMILES: CCc1nc(N)nc(N)c1OCCCc1cn(Cc2ccc(C(=O)O)cc2)nn1 (as salt: hydrochloride) [Compound 32]
- melting point: 211 to 212.5 °C

SMILES: CCc1nc(N)nc(N)c1OCCc1cn(-c2ccc(C(=O)O)cc2)nn1 (as salt: hydrochloride) [Compound 22]
- melting point: 270 to 271 °C

SMILES: CCc1nc(N)nc(N)c1OCCc1cn(-c2cccc(C(=O)O)c2)nn1 (as salt: hydrochloride) [Compound 20]
- melting point: 246 to 247 °C

SMILES: CCc1nc(N)nc(N)c1OCc1csc(-c2ccc(F)cc2)n1 (as salt: hydrochloride) [Compound 69]
- melting point: 226 to 227 °C

SMILES: CCc1nc(N)nc(N)c1OCc1csc(-c2ccc(OCC(=O)O)cc2)n1 (as salt: hydrochloride) (hydrate or solvate) [Compound 73]
- melting point: 203.5 to 205.5 °C

SMILES: CCc1nc(N)nc(N)c1-c1cn(Cc2ccc(OC(=O)N(c3ccccc3)c3ccccc3)cc2)nn1 (as salt: hydrochloride) [Compound 6]
- melting point: 138 to 139 °C

SMILES: CCc1nc(N)nc(N)c1OCc1csc(-c2ccc(OC)cc2)n1 (as salt: hydrochloride) [Compound 68]
- melting point: 228 to 229 °C

SMILES: CCc1nc(N)nc(N)c1OCc1csc(-c2cccc(C)c2)n1 (as salt: hydrochloride) [Compound 61]
- melting point: 232 to 233 °C

SMILES: CCc1nc(N)nc(N)c1OCc1cc(-c2ccccc2)no1 (as salt: hydrochloride) [Compound 33]
- melting point: 221.5 to 222.5 °C

SMILES: CCc1nc(N)nc(N)c1OCCCc1cc(-c2cccc(C#N)c2)no1 (as salt: hydrochloride) [Compound 47]
- melting point: 252 to 253 °C

SMILES: CCc1nc(N)nc(N)c1OCc1cc(-c2ccc(Br)cc2)no1 (as salt: hydrochloride) [Compound 36]
- melting point: 238 to 239.5 °C

SMILES: CCc1nc(N)nc(N)c1OCc1cc(-c2ccc(OC)cc2)no1 (as salt: hydrochloride) [Compound 42]
- melting point: 214 to 216 °C

SMILES: CCc1nc(N)nc(N)c1OCCCc1cn(-c2cccc(C(=O)O)c2)nn1 (as salt: hydrochloride) [Compound 23]
- melting point: 230.5 to 231.5 °C

SMILES: CCc1nc(N)nc(N)c1OCc1cc(-c2cccc(OC)c2)no1 (as salt: hydrochloride) [Compound 38]
- melting point: 211.5 to 212.5 °C

SMILES: CCc1nc(N)nc(N)c1OCc1coc(-c2cccc(OCC(=O)O)c2)n1 (as salt: hydrochloride) (hydrate or solvate) [Compound 54]
- melting point: 203 to 204 °C

SMILES: CCc1nc(N)nc(N)c1OCc1cn(Cc2cc(F)c(O)c(F)c2)nn1 (as salt: hydrochloride) [Compound 27]
- melting point: 224.7 to 226 °C

SMILES: CCc1nc(N)nc(N)c1OCc1cn(-c2ccc(C(=O)OC)cc2)nn1 (as salt: hydrochloride) [Compound 18]
- melting point: 197.5 to 199 °C

SMILES: CCc1nc(N)nc(N)c1-c1ccc(Cl)cc1 [Pyrimethamine, pyrimethamine, reference compound]
- IC50 [1]: 0.058 ± 0.03 µM
- IC50 [2]: > 100 µM
- IC50 (in vitro): > 10 µM
